Assay results reported in publication PMC9587990, “Molecular basis for isoform-selective inhibition of presenilin-1 by MRK-560” (Nature Communications, 2022).
“And” between values parts separate entries of the source, which are not always exact repeats. Equal values may be shown once. Read-outs that look alike come from different tables or passages of the source.

Assays:
Test in all cases: in vitro cleavage assay, Aβ40 production by AlphaLISA
Type in all cases: biochemical
[1] = biological target: T1, PS1 L282I γ-secretase complex (Homo sapiens, UniProt P49768, L282I); conditions: for remaining activity at 0.002 µM / remaining activity at 0.01 µM / remaining activity at 0.04 µM / remaining activity at 0.2 µM / remaining activity at 1 µM / remaining activity at 10 µM: 4 h; for remaining activity at 0.002 µM / remaining activity at 0.01 µM / remaining activity at 0.04 µM / remaining activity at 0.2 µM / remaining activity at 1 µM / remaining activity at 10 µM / Caculated Aβ40 production / raw data from α-Lisa reading: PS1 L282I
T1 construct: made in house
Method: (§1) In total we generated six variants, including single and double residue swapping of Thr281/Leu282 in PS1 with Pro287/Ile288 in PS2, respectively. MRK-560 response to the six PS1/PS2 mutant-containing complexes, each purified to homogeneity, was examined in the in vitro cleavage assay (Fig. 4). All proteins used for the activity assay were sub-cloned, expressed and purified as described. Protein concentration was determined using the Bradford method. […] The cleavage reaction was conducted at 37 °C for 4 h. The cleaved products of these substrates were detected using a monoclonal antibody (1:1000 dilution, CW0299, CWBio) against the C-terminal Myc tag. Aβ40 production was detected using the AlphaLISA assay (PerkinElmer) as described. The IC50 values and the inhibition curves were calculated using Prism 8.0. Statistical analysis of Aβ40 was performed using Prism 8 (GraphPad Software, San Diego, CA, USA). IC50 were determined by a four-parameter logistic regression. The statistical details can be found in Figs. 1, 4 and legends. Data are expressed as mean ± SD.

[2] = biological target: T2, PS1 T281P γ-secretase complex (Homo sapiens, UniProt P49768, T281P); conditions: for remaining activity at 0.002 µM / remaining activity at 0.01 µM / remaining activity at 0.04 µM / remaining activity at 0.2 µM / remaining activity at 1 µM / remaining activity at 10 µM: 4 h; for remaining activity at 0.002 µM / remaining activity at 0.01 µM / remaining activity at 0.04 µM / remaining activity at 0.2 µM / remaining activity at 1 µM / remaining activity at 10 µM / Caculated Aβ40 production / raw data from α-Lisa reading: PS1 T281P
T2 construct: made in house
Method: as §1

[3] = biological target: T3, PS2 I288L γ-secretase complex (Homo sapiens, UniProt P49810, I288L); conditions: for remaining activity at 0.002 µM / remaining activity at 0.04 µM / remaining activity at 0.2 µM / remaining activity at 1 µM / remaining activity at 10 µM / remaining activity at 20 µM: 4 h; for remaining activity at 0.04 µM: MRK-560 40 nM; for remaining activity at 0.2 µM: MRK-560 200 nM; for remaining activity at 1 µM: MRK-560 1 μM; for remaining activity at 10 µM: MRK-560 10 μM; for remaining activity at 20 µM: MRK-560 20 μM
T3 construct: made in house
Method: as §1

[4] = MRK-560 2 nM, mean of 3 replicates, read-out: Normalized production (control=1), Mean
[5] = MRK-560 2 nM, replicates, read-out: Normalized production (control=1)
[6] = MRK-560 10 nM, mean of 3 replicates, read-out: Normalized production (control=1), Mean
[7] = MRK-560 10 nM, replicates, read-out: Normalized production (control=1)
[8] = MRK-560 40 nM, mean of 3 replicates, read-out: Normalized production (control=1), Mean
[9] = MRK-560 40 nM, replicates, read-out: Normalized production (control=1)
[10] = MRK-560 200 nM, mean of 3 replicates, read-out: Normalized production (control=1), Mean
[11] = MRK-560 200 nM, replicates, read-out: Normalized production (control=1)
[12] = MRK-560 1 μM, mean of 3 replicates, read-out: Normalized production (control=1), Mean
[13] = MRK-560 1 μM, replicates, read-out: Normalized production (control=1)
[14] = MRK-560 10 μM, mean of 3 replicates, read-out: Normalized production (control=1), Mean
[15] = MRK-560 10 μM, replicates, read-out: Normalized production (control=1)
[16] = mean of 3 replicates, read-out: Normalized production (control=1), Mean
[17] = replicates, read-out: Normalized production (control=1)

IC50 [1]: 90 ± 10 nM
remaining activity at 0.002 µM [1, 4]: 111%
remaining activity at 0.002 µM [1, 5]: 110%
remaining activity at 0.01 µM [1, 6]: 108%
remaining activity at 0.01 µM [1, 7]: 104%
remaining activity at 0.04 µM [1, 8]: 83.5%
remaining activity at 0.04 µM [1, 9]: 83.1%
remaining activity at 0.2 µM [1, 10]: 28.8%
remaining activity at 0.2 µM [1, 11]: 28.2%
remaining activity at 1 µM [1, 12]: 3.17%
remaining activity at 1 µM [1, 13]: 3.28%
remaining activity at 10 µM [1, 14]: 0.83%
remaining activity at 10 µM [1, 15]: 0.9%
Caculated Aβ40 production ([1]; MRK-560 2 nM, replicates): 281.9088 and 286.0465 and 285.6579
raw data from α-Lisa reading ([1]; MRK-560 2 nM, replicates): 44163 and 44760 and 44704
Caculated Aβ40 production ([1]; MRK-560 10 nM, replicates): 268.0187 and 289.2618 and 277.4973
raw data from α-Lisa reading ([1]; MRK-560 10 nM, replicates): 42149 and 45223 and 43525
Caculated Aβ40 production ([1]; MRK-560 40 nM, replicates): 213.5518 and 216.6350 and 213.7318
raw data from α-Lisa reading ([1]; MRK-560 40 nM, replicates): 34102 and 34564 and 34129
Caculated Aβ40 production ([1]; MRK-560 200 nM, replicates): 72.5045 and 76.2274 and 73.8042
raw data from α-Lisa reading ([1]; MRK-560 200 nM, replicates): 12089 and 12693 and 12300
Caculated Aβ40 production ([1]; MRK-560 1 μM, replicates): 8.4328 and 8.0651 and 7.9702
raw data from α-Lisa reading ([1]; MRK-560 1 μM, replicates): 1487 and 1425 and 1409
Caculated Aβ40 production ([1]; MRK-560 10 μM, replicates): 2.3045 and 1.9913 and 2.1331
raw data from α-Lisa reading ([1]; MRK-560 10 μM, replicates): 452 and 399 and 423
IC50 [2]: 55 ± 6 nM
remaining activity at 0.002 µM [2, 4]: 99.3%
remaining activity at 0.002 µM [2, 5]: 100%
remaining activity at 0.01 µM [2, 6]: 92.8%
remaining activity at 0.01 µM [2, 7]: 94.3%
remaining activity at 0.04 µM [2, 8]: 62.2%
remaining activity at 0.04 µM [2, 9]: 65.5%
remaining activity at 0.2 µM [2, 10]: 10.6%
remaining activity at 0.2 µM [2, 11]: 11%
remaining activity at 1 µM [2, 12]: 1.23%
remaining activity at 1 µM [2, 13]: 1.29%
remaining activity at 10 µM [2, 14]: 0.61%
remaining activity at 10 µM [2, 15]: 0.59%
Caculated Aβ40 production ([2]; MRK-560 2 nM, replicates): 345.9981 and 336.9974 and 315.8225
raw data from α-Lisa reading ([2]; MRK-560 2 nM, replicates): 52003 and 49017 and 53262
Caculated Aβ40 production ([2]; MRK-560 10 nM, replicates): 309.2203 and 316.1610 and 308.6161
raw data from α-Lisa reading ([2]; MRK-560 10 nM, replicates): 49065 and 47993 and 48079
Caculated Aβ40 production ([2]; MRK-560 40 nM, replicates): 209.7683 and 219.6031 and 196.3837
raw data from α-Lisa reading ([2]; MRK-560 40 nM, replicates): 35008 and 31515 and 33534
Caculated Aβ40 production ([2]; MRK-560 200 nM, replicates): 35.0895 and 36.8617 and 34.7461
raw data from α-Lisa reading ([2]; MRK-560 200 nM, replicates): 6240 and 5889 and 5946
Caculated Aβ40 production ([2]; MRK-560 1 μM, replicates): 4.0253 and 4.3330 and 4.0016
raw data from α-Lisa reading ([2]; MRK-560 1 μM, replicates): 795 and 739 and 743
Caculated Aβ40 production ([2]; MRK-560 10 μM, replicates): 2.0149 and 1.9676 and 2.1390
raw data from α-Lisa reading ([2]; MRK-560 10 μM, replicates): 395 and 424 and 403
remaining activity at 0.002 µM [3, 4]: 110%
remaining activity at 0.002 µM [3, 5]: 110%
remaining activity at 0.04 µM [3, 16]: 65.9%
remaining activity at 0.04 µM [3, 17]: 68%
remaining activity at 0.2 µM [3, 16]: 17.7%
remaining activity at 0.2 µM [3, 17]: 17.9%
remaining activity at 1 µM [3, 16]: 5.3%
remaining activity at 1 µM [3, 17]: 5.2%
remaining activity at 10 µM [3, 16]: 1.39%
remaining activity at 10 µM [3, 17]: 1.35%
remaining activity at 20 µM [3, 16]: 1.69%
remaining activity at 20 µM [3, 17]: 1.61%
Caculated Aβ40 production ([3]; MRK-560 2 nM, replicates): 534.8273 and 537.0982 and 529.5442
Compound: O=S(=O)(NC1CCC(c2cc(F)ccc2F)(S(=O)(=O)c2ccc(Cl)cc2)CC1)C(F)(F)F (stereo not drawn) [MRK-560, N-[cis-4-[(4-chlorophenyl)sulfonyl]-4-(2,5-difluorophenyl)cyclohexyl]-1,1,1-trifluoromethanesulfonamide]
